These results are taken from paper PMC11995724, “Antibiotic target discovery by integrated phenotypic and activity-based profiling of electrophilic fragments” (Cell chemical biology, 2025).

What is called viability is a read-out of living cells in per cent, often relative to untreated cells.

Structures can show the parent of a compound that is named as a salt.

This data set can be described thus: in vitro. As to conditions: human, hek293t cells.
As for `O=C(CCl)Nc1c(Cl)cccc1C(F)(F)F` [5-B04, 2-chloro-N-[2-chloro-6-(trifluoromethyl)phenyl]acetamide], the viability at 48 h, 25 µM came out at 1.62%.

For the compound `CCc1ccc(NC(=O)C(C#N)=Cc2cccnc2)cc1` [8-G04, 2-cyano-N-(4-ethylphenyl)-3-(pyridin-3-yl)prop-2-enamide], the viability at 48 h, 25 µM came out at 86.1%.

`COCC(C)NC(=O)C(C#N)=Cc1ccc(F)c(C)c1` (stereo not shown) [9-H09, 2-cyano-3-(4-fluoro-3-methylphenyl)-N-(1-methoxypropan-2-yl)prop-2-enamide]: the viability at 48 h, 25 µM worked out at 108%.

`C=CC(=O)Nc1ccc(C(C)Sc2ccccc2)cc1` (stereo not shown) [1-C21, N-{4-[1-(phenylsulfanyl)ethyl]phenyl}prop-2-enamide]: the viability at 48 h, 25 µM worked out at 69.7%.

Turning to `COC(=O)c1cc(C(=O)CCl)c(C)o1` [10-G13, methyl 4-(2-chloroacetyl)-5-methylfuran-2-carboxylate], the viability at 48 h, 25 µM is 76.4%.

Take `CNC(=O)CC(NC(=O)CCl)c1ccc(F)cc1F` (stereo not shown) [4-I16, 3-(2-chloroacetamido)-3-(2,4-difluorophenyl)-N-methylpropanamide]: the viability at 48 h, 25 µM was found to be 18.5%.

Consider `Cc1csc(Cl)c1NC(=O)CCl` [6-A06, 2-chloro-N-(2-chloro-4-methylthiophen-3-yl)acetamide], for which the viability at 48 h, 25 µM was 0.632%.

With `CC(Cl)C(=O)N(C)Cc1ccnn1C` (stereo not shown) [5-L17, 2-chloro-N-methyl-N-[(1-methyl-1H-pyrazol-5-yl)methyl]propanamide], the viability at 48 h, 25 µM stood at 134%.

As to `COc1ccc(C=C(C#N)C(=O)Nc2ccccc2OC)cc1` [8-G09, 2-cyano-N-(2-methoxyphenyl)-3-(4-methoxyphenyl)prop-2-enamide], the viability at 48 h, 25 µM stood at 80.4%.

For the compound `C=CC(=O)NCC(OC)C1CCOC1` (stereo not shown) [3-L19, N-[2-methoxy-2-(oxolan-3-yl)ethyl]prop-2-enamide], the viability at 48 h, 25 µM stood at 85.8%.

Regarding `C=CC(=O)Nc1ccc(C(=O)NCC2CSCCS2)cc1` (stereo not shown) [2-K21, N-[(1,4-dithian-2-yl)methyl]-4-(prop-2-enamido)benzamide], the viability at 48 h, 25 µM came to 91.9%.

`C=CC(=O)NC1CCC(c2nc(CC)no2)CC1` (stereo not shown) [1-O08, N-[4-(3-ethyl-1,2,4-oxadiazol-5-yl)cyclohexyl]prop-2-enamide]: the viability at 48 h, 25 µM is 92.2%.

For the compound `CC(Cl)C(=O)NCCc1nnnn1-c1ccccc1` (stereo not shown) [7-G17, 2-chloro-N-[2-(1-phenyl-1H-1,2,3,4-tetrazol-5-yl)ethyl]propanamide], the viability at 48 h, 25 µM was found to be 92.2%.

Turning to `COc1ccc(CNC(=O)CCl)cc1OC` [5-O11, 2-chloro-N-[(3,4-dimethoxyphenyl)methyl]acetamide], the viability at 48 h, 25 µM was determined as 23.8%.

With `N#CCCSc1ccccc1NC(=O)CCl` [6-N12, 2-chloro-N-{2-[(2-cyanoethyl)sulfanyl]phenyl}acetamide], the viability at 48 h, 25 µM was determined as 1.44%.

With `O=C(CCl)N(Cc1ccccc1)c1ccccc1` [4-G13, N-benzyl-2-chloro-N-phenylacetamide], the viability at 48 h, 25 µM worked out at 1.23%.

In the case of `CN(C)C(CNC(=O)CCl)c1ccccc1` (stereo not shown) [4-B21, 2-chloro-N-[2-(dimethylamino)-2-phenylethyl]acetamide hydrochloride], the viability at 48 h, 25 µM worked out at 79.8%.

Take `O=C(CCl)N(Cc1ccccc1)c1nc2c(s1)CCCC2` [4-C17, N-benzyl-2-chloro-N-(4,5,6,7-tetrahydro-1,3-benzothiazol-2-yl)acetamide]: the viability at 48 h, 25 µM came out at 0.212%.

With `Cc1ccc(NC(=O)C(C#N)=Cc2ccc(OC(F)F)cc2)c(C)c1` [9-G19, 2-cyano-3-[4-(difluoromethoxy)phenyl]-N-(2,4-dimethylphenyl)prop-2-enamide], the viability at 48 h, 25 µM turned out to be 90.4%.

As for `Cc1cccc(-n2cc(C(=O)CCl)nn2)c1` [10-L07], the viability at 48 h, 25 µM came to 81.5%.

On to `N#CC(=Cc1c(F)cccc1F)C(=O)Nc1ccccc1F` [9-J12, 2-cyano-3-(2,6-difluorophenyl)-N-(2-fluorophenyl)prop-2-enamide], for which the viability at 48 h, 25 µM worked out at 103%.

Turning to `Cc1ccccc1CC(C)NC(=O)CCl` (stereo not shown) [6-C06, 2-chloro-N-[1-(2-methylphenyl)propan-2-yl]acetamide], the viability at 48 h, 25 µM turned out to be 75.4%.

On to `CC(Cl)C(=O)NCc1cnc(N2CCOCC2)s1` (stereo not shown) [6-P05, 2-chloro-N-{[2-(morpholin-4-yl)-1,3-thiazol-5-yl]methyl}propanamide], for which the viability at 48 h, 25 µM was found to be 116%.

Regarding `C=CC(=O)NCc1cccc(OC)n1` [1-H22, N-[(6-methoxypyridin-2-yl)methyl]prop-2-enamide], the viability at 48 h, 25 µM was 79.2%.

Turning to `C=CC(=O)N1CCN(S(=O)(=O)CC)CC1` [3-D20, 1-[4-(ethanesulfonyl)piperazin-1-yl]prop-2-en-1-one], the viability at 48 h, 25 µM is 106%.

Turning to `C=CC(=O)N1CCCCC1` [1-C12, 1-(piperidin-1-yl)prop-2-en-1-one], the viability at 48 h, 25 µM came out at 98.4%.

Consider `CC(Cl)C(=O)N(Cc1ccco1)C1CCN(C)CC1` (stereo not shown) [7-L17, 2-chloro-N-[(furan-2-yl)methyl]-N-(1-methylpiperidin-4-yl)propanamide], for which the viability at 48 h, 25 µM worked out at 101%.

As to `O=C(CCl)N1c2ccccc2Sc2ccc(Cl)cc21` [4-N07, 2-chloro-1-(2-chloro-10H-phenothiazin-10-yl)ethan-1-one], the viability at 48 h, 25 µM turned out to be 122%.

In the case of `C=CC(=O)N1CCC(C(=O)NCc2cn3ccc(C)nc3n2)CC1` [3-D12, N-({7-methylimidazo[1,2-a]pyrimidin-2-yl}methyl)-1-(prop-2-enoyl)piperidine-4-carboxamide], the viability at 48 h, 25 µM stood at 75.3%.

As to `COc1ccc(C=C(C#N)C(=O)Nc2ccccc2[N+](=O)[O-])cc1` [8-G03, 2-cyano-3-(4-methoxyphenyl)-N-(2-nitrophenyl)prop-2-enamide], the viability at 48 h, 25 µM was determined as 96.8%.

`C=CC(=O)N1CCC(C(=O)N(C)Cc2ccc([S+](C)[O-])cc2)CC1` (stereo not shown) [2-D06, N-[(4-methanesulfinylphenyl)methyl]-N-methyl-1-(prop-2-enoyl)piperidine-4-carboxamide]: the viability at 48 h, 25 µM is 76.4%.

`N#CC(=Cc1cccc(O)c1)C(=O)NCc1ccco1` [9-F21, 2-cyano-N-[(furan-2-yl)methyl]-3-(3-hydroxyphenyl)prop-2-enamide]: the viability at 48 h, 25 µM stood at 119%.

Turning to `N#CC(=Cc1ccc(SC(F)(F)F)cc1)C(=O)NC1CC1` [9-C14, 2-cyano-N-cyclopropyl-3-{4-[(trifluoromethyl)sulfanyl]phenyl}prop-2-enamide], the viability at 48 h, 25 µM came to 55.5%.

As to `Cc1ccc(C=C(C#N)C(=O)Nc2cc(Cl)ccc2Cl)s1` [9-E19, 2-cyano-N-(2,5-dichlorophenyl)-3-(5-methylthiophen-2-yl)prop-2-enamide], the viability at 48 h, 25 µM amounted to 107%.

With `O=C(CCl)N1N=C(c2ccc3ccccc3c2)CC1c1ccccc1` (stereo not shown) [4-K22, 2-chloro-1-[3-(naphthalen-2-yl)-5-phenyl-4,5-dihydro-1H-pyrazol-1-yl]ethan-1-one], the viability at 48 h, 25 µM was -0.201%.

As to `C=CC(=O)N1CCC(C(=O)N2CC=CCC2)(c2ccccc2)CC1` [3-J06, 1-[4-phenyl-4-(1,2,3,6-tetrahydropyridine-1-carbonyl)piperidin-1-yl]prop-2-en-1-one], the viability at 48 h, 25 µM was found to be 61.7%.

`O=C(CCl)NC1CCN(C(=O)c2ccco2)c2ccccc21` (stereo not shown) [5-O07, 2-chloro-N-[1-(furan-2-carbonyl)-1,2,3,4-tetrahydroquinolin-4-yl]acetamide]: the viability at 48 h, 25 µM stood at 1.59%.
